Data taken from publication PMC9506049, “Oxidation of p-[^125I]Iodobenzoic Acid and p-[^211At]Astatobenzoic Acid Derivatives and Evaluation In Vivo” (International Journal of Molecular Sciences, 2022).

How the values were obtained:
[1] = Stability to isolation from radio-HPLC effluent, evaporation and dissolution in PBS (radio-HPLC reinjection); type: physicochemical; details: evaporation of solvents, dissolution in PBS
Method: Similarly, radiohalogenation of para-tri-n-butylstannylbenzamidyl-dPEG4-carboxylic acid methyl ester 9 (Figure 3) using ChT as oxidant provided quantitative yields of [^125I]10 and [^211At]12 by radio-HPLC analyses (Figure 4A,B). The radiohalogenation reaction products were used without purification in the oxidation reactions to make the corresponding iodoxyaryl or astatoxyaryl compounds. Oxidation of [^125I]5 (Figure 2) provided [^125I]6 in 71% RCY. Oxidation of [^125I]10 (Figure 3) at 70 °C for 20 min provided a complex mixture of products, but isolation of the major peak (~6–8 min) provided [^125I]11 in 60% RCY (Figure 4C,E). […]
Two biodistribution studies were conducted. One biodistribution study evaluated the tissue distribution in athymic mice of isolated products from the reactions to produce [^125I]11 and [^211At]13. […]
HPLC analyses of non-radioactive compounds were performed using a system composed of a Hewlett-Packard quaternary 1050 gradient pump, a variable wavelength UW detector (254 nm) and an evaporative light scattering detector (ELSD 2000, Alltech, Deerfield, IL, USA). Radio-HPLC analysis of product mixtures from radiohalogenation reactions were analyzed using a system composed of two Beckman model 110 B pumps, a Beckman 420 controller, a Beckman model 153 UV detector (254 nm), and a Beckman model 170 radiation detector. […]

Solubility observations = type: physicochemical
[2] = Biodistribution of coinjected [125I]11 and [211At]13 in athymic mice; type: in vivo; details: tail vein coinjection, 3 µCi each, n = 5, mean ± SD; for Concentration of radioactivity in neck: neck (thyroid)

## COC(=O)CCOCCOCCOCCOCCNC(=O)c1ccc([211At](=O)=O)cc1 [[211At]13, p-[^211At]astatoxylbenzoyl-dPEG-methyl ester]
[1]
  Stability under the conditions of isolation by radio-HPLC: too unstable

## COC(=O)c1ccc(I(=O)=O)cc1 [Compound 6, Para-Iodoxybenzoic Acid Methyl Ester]
other
  melting point: 243 to 245 °C
Solubility observations; DMSO at room temperature
  Solubility in DMSO: only partially soluble
Solubility observations; all solvents tried
  Solubility: very insoluble in all solvents tried

## COC(=O)CCOCCOCCOCCOCCNC(=O)c1ccc([125I](=O)=O)cc1 [[125I]11]
[2]; 1 h p.i.
  Concentration of radioactivity in blood: 0.22 ± 0.14 %ID/g
  Concentration of radioactivity in intestine: 9.59 ± 8.73 %ID/g
  Concentration of radioactivity in kidney: 0.84 ± 0.23 %ID/g
  Concentration of radioactivity in liver: 1.73 ± 0.96 %ID/g
  Concentration of radioactivity in lung: 0.32 ± 0.10 %ID/g
  Concentration of radioactivity in muscle: 0.12 ± 0.05 %ID/g
  Concentration of radioactivity in spleen: 0.35 ± 0.28 %ID/g
  Concentration of radioactivity in stomach: 3.53 ± 1.09 %ID/g
  Concentration of radioactivity in neck: 0.49 ± 0.09 %ID/g
[2]; 4 h p.i.
  Concentration of radioactivity in blood: 0.23 ± 0.18 %ID/g
  Concentration of radioactivity in intestine: 3.39 ± 1.15 %ID/g
  Concentration of radioactivity in kidney: 0.40 ± 0.15 %ID/g
  Concentration of radioactivity in liver: 0.64 ± 0.47 %ID/g
  Concentration of radioactivity in lung: 0.14 ± 0.07 %ID/g
  Concentration of radioactivity in muscle: 0.03 ± 0.01 %ID/g
  Concentration of radioactivity in spleen: 0.08 ± 0.04 %ID/g
  Concentration of radioactivity in stomach: 0.65 ± 0.16 %ID/g
  Concentration of radioactivity in neck: 0.35 ± 0.14 %ID/g
[2]; 24 h p.i.
  Concentration of radioactivity in blood: 0.01 ± 0.00 %ID/g
  Concentration of radioactivity in intestine: 0.02 ± 0.01 %ID/g
  Concentration of radioactivity in kidney: 0.03 ± 0.01 %ID/g
  Concentration of radioactivity in liver: 0.01 ± 0.00 %ID/g
  Concentration of radioactivity in lung: 0.54 ± 0.85 %ID/g
  Concentration of radioactivity in spleen: 0.01 ± 0.00 %ID/g
  Concentration of radioactivity in stomach: 0.02 ± 0.01 %ID/g
  Concentration of radioactivity in neck: 0.02 ± 0.01 %ID/g
[1]
  Stability under the conditions of isolation by radio-HPLC: did not change during that process
